Experimental findings from US20250115571A1, “OXOPIPERAZINE DERIVATIVES” (Inthera Bioscience AG, priority 2017, published 2025) are described below.

A value given as a limit tells only on which side of the number the result lay.

In assay [1] the test system is HPV-positive head-and-neck squamous cell carcinoma model #HN11303. Put plainly: Patient-derived xenograft mouse model for head-and-neck squamous cell carcinoma (HN11303). In kind it is in vivo. The settings on record: subcutaneous HPV-positive HNSCC model, female NMRI nu/nu mice. As for the experimental part:
Female NMRI nu/nu mice were injected with cells derived from a human head-and-neck cancer (model #HN11303, an HPV-positive head-and-neck squamous cell carcinoma, EPO-GmbH, Berlin, Germany). The cells were inoculated subcutaneously into the left flank of 40 mice. Thirteen days later tumors reached a mean volume of approximately 107 mm^3, and mice were randomly assigned to five treatment groups of each eight mice (TABLE 23). Body weights were measured twice weekly. Tumor burden was assessed by caliper measurement twice weekly. Dosing breaks were applied when tolerability issues arose (body weight loss>10). The study was terminated five weeks post first dosing. The experiment was performed in the EPO animal testing facility (Experimental Pharmacology and Oncology GmbH, 13125 Berlin-Buch, Germany).

For assay [2], the system named is CaSki cells. Put plainly: Colony Formation Assay (CFA), 14 days. To be noted: Homo sapiens, Ca-Ski, 336 h; for inhibition at 0.7 µM: colony formation assay, class by % inhibition at 0.7, 6 or 50 μM. The format is cell-based. The text has this: Cell culture: CaSki cells were obtained from CLS GmbH, Eppelheim, Germany (cat. 300145) and subcultured in ready-to-use RPMI1640 Media (CLS GmbH cat. 820700) after addition of “Antibiotic Antimycotic Solution” (Sigma-Aldrich, St Louis, USA, cat. A5955) at 1:100 dilution. CaSki cells were expanded and aliquots kept frozen in liquid nitrogen according to manufacturer's instructions. Once thawed, aliquots were passaged every second or third day at a seed density of 20′000 cells/cm^2; and used for a maximum of twenty passages.
Preparation of the cells for CFA: Cell culture flasks were rinsed twice with Ca++/Mg++-free Phosphate-Buffered Saline (DPBS, CLS GmbH cat. 860015) and incubated with Accutase (CLS GmbH cat. 830100) for 15 min at 37° C. Cells were resuspended in a four-fold volume of ready-to use RPMI, centrifuged at 300 g for 10 minutes, the supernatant discarded and the cells resuspended in ready-to-use RPMI1640 by pipetting up and down ten times with a serological pipette. Cell density was determined with a Via-1 Cassette (Chemometec, Allerod, Denmark) on a Nucleocounter NC 3000 (Chemometec). The required amount of cells was first diluted 1:10 in ready-to-use RPMI; cells pipetted five times up-down with a serological pipette; and the 1:10 solution added to the final volume needed for the whole assay setup. Cells were mixed again by pipetting up and down twenty times with a serological pipette. The final cell density was 70 cells/ml.
Seeding: Cells were seeded column-wise in 6-well plates, while triplicates were treated row-wise. Three ml cell suspension solution (210 cells) were added per well.
Treatment: Compound stock solutions were prepared at a concentration of 30 mM in 50% DMSO/50% water; and diluted in the same solution so that the volume added to the wells was of 5 μl and the final DMSO well concentration 0.08%. Untreated cells (negative controls) were incubated in a) medium only; and b) 0.08% DMSO. […] Tests showing less than 75% or more than 95% inhibition were repeated. The plates were swirled gently after addition of the compounds and the cells incubated for 14 days at 37° C. Culture incubation solutions were replaced after one week.
Staining: Colonies were washed twice with ice-cold DPBS and fixed on ice with 1 ml ice-cold 10% methanol solution for 30 min. The methanol solution was removed and colonies incubated with 0.1% Crystal Violet/DBPS for 20 min at room temperature. The wells were rinsed with water at room temperature, let dry and colonies were counted. Compounds e.g., compounds of Table 2 and 3 were classified as follows: […]

For assay [3], the system named is CaSki. Put plainly: 9-day colony survival assay (CFA). The format is cell-based. To be noted: Homo sapiens, Ca-Ski, 216 h, CaSki (cervix), read-out: GI50 (50% growth inhibition). The text has this:
Cell culture. CaSki cells (cervical cancer) were obtained from CLS GmbH, Eppelheim, Germany (cat #300145) and subcultured in ready-to-use RPMI1640 Media (CLS #820700) after addition of “Antibiotic Antimycotic Solution” (Sigma-Aldrich, St Louis, USA) at 1:100 dilution. The cells were expanded, and aliquots kept frozen in liquid nitrogen according to manufacturer's instructions; tested for mycoplasma contamination and genotyped (Microsynth AG, Balgach, Switzerland). Once thawed, aliquots were passaged every second or third day at a seed density of 20′000 cells/cm^2; and used for a maximum of twenty passages. For passaging, cell culture flasks were rinsed twice with Ca++/Mg++-free Phosphate-Buffered Saline (DPBS, CLS #860015) and incubated with Accutase (CLS #830100) for 15 min at 37° C. Cells were resuspended in a four-fold volume of ready-to-use RPMI, centrifuged at 300 g for ten minutes, the supernatant discarded and the cells resuspended in ready-to-use RPMI1640 by pipetting up and down five times with a serological pipette. Cell density was determined with a Via-1 Cassette (Chemometec, Allerod, Denmark) on a Nucleocounter NC 3000 (Chemometec). Where not stated, consumables and chemicals were purchased from well-known suppliers.
Preparation of the cells for CFA. Cell culture flasks were rinsed twice with DPBS and incubated with Accutase for 15 min at 37° C. Cells were resuspended in a four-fold volume of ready-to use RPMI, centrifuged at 300 g for ten minutes, the supernatant discarded and the cells resuspended in ready-to-use RPMI1640 by pipetting up and down ten times with a serological pipette. Cell density was determined with a Via-1 Cassette on a Nucleocounter NC 3000. The required amount of cells was first diluted 1:10 in ready-to-use RPMI; cells pipetted five times up-down with a serological pipette; and the 1:10 solution added to the final volume needed for the whole assay setup. Cells were mixed again by pipetting up and down twenty times with a serological pipette. The cell density used for the experiment was of 140 cells/ml.
Seeding. Cells were seeded row-wise in 12-well plates, while triplicates were treated column-wise (i.e. all the first rows were seeded first, then the second rows, and finally the third rows). One and a half ml cell suspension solution (a total of 210 cells) were added per well.
Treatment. Compound stock solutions were prepared at a concentration of 30 mM in 50% DMSO/50% water; and diluted in the same solution so that the volume added to the wells was of 2.5 μl and the final DMSO well concentration of 0.08%. Untreated cells (negative controls) were incubated in a) medium only; and b) 0.08% DMSO. […] The plates were swirled gently after addition of the compounds and the cells incubated for nine days at 37° C. Culture incubation solutions were replaced after five days.
Staining. Colonies were washed twice with ice-cold DPBS and fixed on ice with 1 ml ice-cold 10% methanol solution for 30 min. The methanol solution was removed and colonies incubated with 0.1% Crystal Violet/DBPS for 20 min at room temperature. The wells were rinsed consecutively with 1.5, 1, and 0.5 ml water at room temperature and let dry.
Destaining and data evaluation. […] Absorbance was measured at 600 nm with a SpectraMax M2e reader (Molecular Devices, Sunnyvale, CA, USA). Percentage of colony formation was calculated from the average of the well triplicates compared to the untreated DMSO controls after subtraction of blank values. […]

Assay [4] has as its system PC3. Put plainly: 9-day colony survival assay (CFA). In kind it is cell-based. To be noted: Homo sapiens, PC-3, 216 h, PC3 (prostate), read-out: GI50 (50% growth inhibition).
For assay [5], the system named is HCT116. Put plainly: 9-day colony survival assay (CFA). In kind it is cell-based. The settings on record: Homo sapiens, HCT-116, 216 h, HCT116 (colon), read-out: GI50 (50% growth inhibition).
The subject of assay [6] is A549. Put plainly: 9-day colony survival assay (CFA). In kind it is cell-based. The settings on record: Homo sapiens, 216 h, A549 (lung), read-out: GI50 (50% growth inhibition).

In the case of `CC(C)C[C@@H]1NCCN([C@@H](CC(C)C)C(=O)N2CCC(Cc3ncc[nH]3)CC2)C1=O` [Compound 57, (S)-1-[(S)-1-({4-[(1H-Imidazol-2-yl)methyl]-1-piperidyl}carbonyl)-3-methylbutyl]-3-isobutyl-2-piperazinone], the “mean TV” value in assay [1] (day 13) amounted to 0.1073 cm^3; in assay [1] (day 15), 0.1106 cm^3; in assay [1] (day 18) it was 0.1166 cm^3; in assay [1] (day 21) it was 0.1081 cm^3; in assay [1] (day 25), 0.1233 cm^3; in assay [1] (day 29) it was 0.1421 cm^3. For the same molecule, the “mean TV” value in assay [1] (day 33) stood at 0.2009 cm^3; in assay [1] (day 36), 0.1776 cm^3. In assay [2] (10 μM, reference compound standard treatment, 14 days), this molecule registered an inhibition at 10 µM of 80 to 90%.
`CC(C)C[C@@H]1NCCN([C@H](C(=O)N2CCC(CC(N)=O)CC2)C(C)C)C1=O` [Compound 90, (1-{(S)-2-[(S)-3-Isobutyl-2-oxo-1-piperazinyl]-3-methylbutyryl}-4-piperidyl)acetamide]: the inhibition at 0.7 µM in assay [2] is < 0%.
On the same count and under the same terms, in the case of `CC(C)(C)C[C@@H](C(=O)N1CCC(CC(N)=O)CC1)N1CCN[C@@H](CC2CC2)C1=O` [Compound 94, (1-{(S)-2-[(S)-3-(Cyclopropylmethyl)-2-oxo-1-piperazinyl]-4,4-dimethylvaleryl}-4-piperidyl)acetamide] it was < 0%.
On the same count and under the same terms, under `CCCC[C@@H]1NCCN([C@@H](CC2CC2)C(=O)N2CCC(CC(N)=O)CC2)C1=O` [Compound 106, (1-{(S)-2-[(S)-3-Butyl-2-oxo-1-piperazinyl]-3-cyclopropylpro-pionyl}-4-piperidyl)acetamide] stands < 0%; under `CC(C)C[C@@H](C(=O)N1CCC(CC(N)=O)CC1)N1CCN[C@@H](CC(C)(C)C)C1=O` [Compound 114, (1-{(S)-2-[(S)-3-Neopentyl-2-oxo-1-piperazinyl]-4-methylvaleryl}-4-piperidyl)acetamide], < 0%; under `CC(C)C[C@@H]1NCCN([C@@H](CC(C)C)C(=O)N2CCC3(C[C@@H]2C)OCC(c2nccn2C)CO3)C1=O` (stereo partly drawn) [Compound 260, (S)-1-[(S)-1-({(S)-8-Methyl-3-(1-methyl-1H-imidazol-2-yl)-1,5-dioxa-9-aza-9-spiro[5.5]un-decyl}carbonyl)-3-methylbutyl]-3-isobutyl-2-piperazinone], < 0%.
As to `CC(C)C[C@@H]1NCCN([C@@H](CC(C)C)C(=O)N2CCC3(C[C@@H]2C)OCC(c2ccccn2)CO3)C1=O` (stereo partly drawn) [Compound 285, (S)-1-[(S)-1-({(S)-8-Methyl-3-(2-pyridyl)-1,5-dioxa-9-aza-9-spiro[5.5]un-decyl}carbonyl)-3-methylbutyl]-3-isobutyl-2-piperazinone], the inhibition at 0.7 µM in assay [2] is < 0%.
As to `CC(C)C[C@H]1C(=O)N([C@@H](CC(C)C)C(=O)N2CCC3(C[C@@H]2C)OCC(CN2CCCC2)CO3)CCN1C` (stereo partly drawn) [Compound 287, (3S)-4-methyl-1-[(2S)-4-methyl-1-oxo-1-[(3s,6s,8S)-8-methyl-3-(pyrrolidin-1-ylmethyl)-1,5-dioxa-9-azaspiro[5.5]undec-an-9-yl]pentan-2-yl]-3-(2-methylpropyl)piper-azin-2-one (^≠), isomer Z], the GI50 turned out to be 13 nM in assay [3], 7 nM in assay [4], 1.5 nM in assay [5] and 20 nM in assay [6].
For the molecule `CC(C)C[C@@H]1NCCN([C@@H](CC(C)C)C(=O)N2CCC3(C[C@@H]2C)O[C@H]2C[C@@H](N(C)C)C[C@H]2O3)C1=O` (stereo partly drawn) [Compound 292, (S)-1-[(S)-1-({(1R,5S,2′S)-7-(Dimethylamino)-2′-methylspiro[2.4-di-oxabicyclo[3.3.0]oc-tane-3,4′-piperidin]-1′-yl}carbonyl)-3-methylbutyl]-3-isobutyl-2-piperazinone], the inhibition at 0.7 µM in assay [2] is < 0%.
The same measure, in the same setting: in the case of `CC(C)C[C@@H]1NCCN([C@@H](CC(C)C)C(=O)N2CCC3(C[C@@H]2C)O[C@H]2CN(C)CC[C@H]2O3)C1=O` (stereo partly shown) [Compound 296] it was < 0%; in that of `CC(C)C[C@@H]1NCCN([C@@H](CC(C)C)C(=O)N2CCC3(C[C@@H]2C)OC2CN(C)C[C@@H]2O3)C1=O` (stereo partly drawn) [Compound 300, (S)-1-[(S)-1-({(2′S)-7-Methyl-2′-methylspiro[2.4-dioxa-7-azabicyclo[3.3.0]oc-tane-3,4′-piperidin]-1′-yl}carbonyl)-3-methylbutyl]-3-isobutyl-2-piperazinone], < 0%.
